One data set deals with B/Florida/04/2006. In words: Antiviral activity (drug efficacy evaluation by concentration) against B/Florida/04/2006. Format: cell-based, B type influenza virus. The note with it: read-out: EC50 B/Florida/04/2006, B/Florida/04/2006.
Data set [1] relates to A/California/07/2009 (H1N1). In words: Antiviral activity (drug efficacy evaluation by concentration) against A/California/07/2009 (H1N1). Format: cell-based, A type influenza virus. The note with it: A/California/07/2009 (H1N1); read-out: EC50 A/California/07/2009 (H1N1).
For the next data set, the system named is A/Perth/16/2009 (H3N2). The experiment in a line: Antiviral activity (drug efficacy evaluation by concentration) against A/Perth/16/2009 (H3N2). It is filed as cell-based, A type influenza virus. The note with it: A/Perth/16/2009 (H3N2); read-out: EC50 A/Perth/16/2009 (H3N2).
The next data set has as its system MDCK cells. The experiment in a line: Cytotoxicity (CC50) in the influenza infection assay.
The mark [2] stands for this setting: read-out: CC50 A/California/07/2009 (H1N1), cytotoxicity in the A/California/07/2009 (H1N1) assay.
Setting [3] is: read-out: CC50 A/Perth/16/2009 (H3N2), cytotoxicity in the A/Perth/16/2009 (H3N2) assay.
Setting [4] is: read-out: CC50 B/Florida/04/2006, cytotoxicity in the B/Florida/04/2006 assay.

Molecules are shown by their SMILES. Where two headings read alike, the source gives them in different places. Some results are limits rather than exact numbers.

Take `Cc1nn(Cc2nnc(SCc3ccccc3-c3ccncc3)o2)c(C)c1Br` [Compound 15, 2-((4-bromo-3,5-dimethyl-1H-pyrazol-1-yl)methyl)-5-((2-(pyridin-4-yl)benzyl)thio)-1,3,4-oxadiazole]: the EC50 in the data set on B/Florida/04/2006 was 8.18 µM; in data set [1], 8.9 µM; in the data set on A/Perth/16/2009 (H3N2), 11.6 µM. Further, the CC50 with MDCK cells (setting [2]), with MDCK cells (setting [3]) and in the data set on MDCK cells (setting [4]) was over 50 µM in each case.
In the case of `Cc1nn(Cc2nnc(SCc3ccccc3-c3ccncc3)o2)c(C)c1Br` [Compound 20, 2-((4-bromo-3,5-dimethyl-1H-pyrazol-1-yl)methyl)-5-((2-(pyridin-4-yl)benzyl)thio)-1,3,4-oxadiazole], the EC50 in the data set on B/Florida/04/2006 was 0.66 µM; in data set [1], 0.7 µM; with A/Perth/16/2009 (H3N2), 0.7 µM. Further, the CC50 in the data set with MDCK cells (setting [2]) amounted to 8.3 µM; in the data set on MDCK cells (setting [3]), 10.2 µM; with MDCK cells (setting [4]) it was 10.2 µM.

These data come from patent publication US11149033B2, “Heteroaryl compound, enantiomer, diastereomer or pharmaceutically acceptable salt thereof, and antiviral composition containing same as active ingredient” (priority 2016, dated 2021).
